Where two headings read alike, the source gives them in different places.
How the values were obtained:
[1] = target: benzodiazepine site of the GABA-A receptor; assay: Benzodiazepine Receptor Binding Assay (inhibition of 3H-flunitrazepam binding); conditions: 3H-flunitrazepam ca. 3 nM
[2] = system: behavior suppressed by punishment (rat conflict); assay: Suppression of Anxiety in the Adult Male Rat (rat conflict, Vogel); assay type: in vivo; conditions: po
Protocol: Assay to Measure the Suppression of Anxiety in the Adult Male Rat
Male rats were deprived of water for 48 hours and were deprived of food for 24 hours prior to testing. After the first 24 hours of water deprivation, they were placed in the conflict chamber for a training period; wherein, they were allowed 200 unpunished licks from a bottle containing tap water. The experiment was run the next day. At the expected time of peak activity, the animals were placed in the chamber and allowed access to tap water. […] Their first lick initiates a 3-min test session. Subsequently,every 20th lick was punished by a 0.2-s shock delivered via the stainless-steel drinking-tube. […] The Wilcoxon rank-sum test (Mann-WhitneyU-test) was used to test for an increase (p<0.05, 1-tailed) in the median number of shocks in drug-treated groups, compared to a concurrently run vehicle-treated group. The biological assay is considered to be valid if the effects of a known anxiolytic (positive control) are detected, within the same experiment.

[3] = system: Metrazol-Induced Convulsions; assay: Suppression of Metrazol-Induced Convulsions in Adult Male Mice; assay type: in vivo, mice (male CD1); conditions: Mus musculus, ip, read-out: anti-metrazol ED50
Protocol: Assay to Determine the Suppression of Metrazol-Induced Convulsions in Adult Male Mice
Male CD1 mice, were fasted at least 16 hours, were divided into equal groups and test compounds or vehicle were administered parenterally. Water was not withheld except during the period of observations. […] Metrazol was dissolved in 0.9% sodium chloride solution, and its dose volume was 10 ml/kg. Animals were housed individually for observation of clonic convulsions, tonic convulsions and death for a period of 30 min. […] The biological assay was considered to be valid if the effects of a known anticonvulsant (positive control) were detected, within the same experiment. Activity was reported as percent reduction of clonic convulsions from the vehicle group.

[4] = minimum effective dose, Wilcoxon rank-sum test p<0.05, read-out: rat conflict MED
[5] = mice, s.c. CD90 metrazol, clonic convulsions
[6] = Rattus norvegicus, read-out: rat conflict MED, po, minimum effective dose, Wilcoxon rank-sum test p<0.05

Compound	IC50 [1]	minimal effective dose [2, 4]	ED50 [3, 5]	minimal effective dose [2, 6]	ED50 [3]
CCN1C2=C(C(=O)Nc3ccccc3F)C(=O)CCN2c2ccc3ccccc3c21 [Example 21]	16.5 nM	> 10 mg/kg	> 1 mg/kg		
O=C1CCN2C(=C1C(=O)Nc1nccs1)Nc1cc3ccccc3cc12 [Example 17]	360 nM		> 1 mg/kg		
CCN1C2=C(C(=O)Nc3c(F)cccc3F)C(=O)CCN2c2cc3ccccc3cc21 [Example 4, 5-ethyl-3-oxo-1,2,3,5-tetrahydronaphtho[2',3': 4,5]imidazo[1,2-a]pyridine-4-carboxylic acid (2,6-difluorophenyl)amide]	6.87 nM	> 10 mg/kg	> 1 mg/kg		
CN(CCN1C2=C(C(=O)Nc3ccccc3F)C(=O)CCN2c2cc3ccccc3cc21)Cc1ccccc1 [Example 6, 5-[2-(benzylmethylamino)ethyl)-3-oxo-1,2,3,5-tetrahydronaphtho[2',3': 4,5]imidazo[1,2-a]pyridine-4-carboxylic acid (2-fluorophenyl)amide]	8.02 nM		> 1 mg/kg	> 10 mg/kg	
O=C1CCN2C(=C1C(=O)Nc1ccccc1F)N(CC1CC1)c1cc3ccccc3cc12 [Example 14]	0.57 nM		< 1 mg/kg	> 10 mg/kg	
CCN1C2=C(C(=O)Nc3cccs3)C(=O)CCN2c2cc3ccccc3cc21 [Example 16]	0.7 nM	> 10 mg/kg	< 1 mg/kg		
CCOCN1C2=C(C(=O)Nc3c(F)cccc3F)C(=O)CCN2c2ccc3ccccc3c21 [Example 26]	10.3 nM			> 10 mg/kg	
CNCCN1C2=C(C(=O)Nc3ccccc3F)C(=O)CCN2c2cc3ccccc3cc21.Cl [Example 8, 5-[2-(methylamino)ethyl)-3-oxo-1,2,3,5-tetrahydronaphtho[2',3': 4,5]imidazo[1,2-a]pyridine-4-carboxylic acid (2-fluorophenyl)amide hydrochloride]	7.98 nM		> 1 mg/kg	> 10 mg/kg	
CCOCN1C2=C(C(=O)Nc3c(F)cccc3F)C(=O)CCN2c2cc3ccccc3cc21 [Example 10, 5-Ethoxymethyl-3-oxo-1,2,3,5-tetrahydronaphtho[2',3': 4,5]-imidazo[1,2-a]pyridine-4-carboxylic acid (2,6-difluorophenyl)amide]	13 nM	> 10 mg/kg	> 1 mg/kg		
O=C1CCN2C(=C1C(=O)Nc1ccccc1F)Nc1cc3ccccc3cc12 [Example 1, 3-oxo-1,2,3,5-tetrahydronaphtho[2',3': 4,5]imidazo[1,2-a]pyridine-4-carboxylic acid (2-fluorophenyl)amide]	17 nM	> 10 mg/kg			1 mg/kg
O=C1CCN2C(=C1C(=O)Nc1c(F)cccc1F)Nc1c2ccc2ccccc12 [Example 23]	17.9 nM			10 mg/kg	
CCN1C2=C(C(=O)Nc3nccs3)C(=O)CCN2c2cc3ccccc3cc21 [Example 18]	11.1 nM		< 1 mg/kg	> 10 mg/kg	
CN(CCN1C2=C(C(=O)Nc3c(F)cccc3F)C(=O)CCN2c2cc3ccccc3cc21)Cc1ccccc1 [Example 7, 5-[2-(benzylmethylamino)ethyl)-3-oxo-1,2,3,5-tetrahydronaphtho[2',3': 4,5]imidazo[1,2-a]pyridine-4-carboxylic acid (2.6-difluorophenyl)amide]	58 nM	> 10 mg/kg	> 1 mg/kg		
COCCN1C2=C(C(=O)Nc3ccccc3F)C(=O)CCN2c2cc3ccccc3cc21 [Example 5, 5-(2-methoxyethyl)-3-oxo-1,2,3,5-tetrahydronaphthol[2',3': 4,5]-imidazo[1,2-a]pyridine-4-carboxylic acid (2-fluorophenyl)amide]	0.37 nM	10 mg/kg	< 1 mg/kg		
CCN1C2=C(C(=O)Nc3ccccc3F)C(=O)CCN2c2cc3ccccc3cc21 [Example 3, 5-ethyl-3-oxo-1,2,3,5-tetrahydronaphtho[2',3': 4,5]imidazo[1,2-a]pyridine-4-carboxylic acid (2-fluorophenyl)amide]	0.94 nM	10 mg/kg	< 1 mg/kg		
CCOCCN1C2=C(C(=O)Nc3c(F)cccc3F)C(=O)CCN2c2ccc3ccccc3c21 [Example 25]	3.72 nM	> 3 mg/kg			
COCCN1C2=C(C(=O)Nc3ccccc3F)C(=O)CCN2c2ccc3ccccc3c21 [Example 22]	31.8 nM		> 1 mg/kg	> 10 mg/kg	
COCCN1C2=C(C(=O)Nc3c(F)cccc3F)C(=O)CCN2c2ccc3ccccc3c21 [Example 24]	0.29 nM	> 3 mg/kg	1 mg/kg		
O=C1CCN2C(=C1C(=O)Nc1c(F)cccc1F)Nc1cc3ccccc3cc12 [Example 2, 3-oxo-1,2,3,5-tetrahydronaphtho[2',3': 4,5]imidazo[1,2-a]pyridine-4-carboxylic acid (2,6-difluorophenyl)amide]	3.95 nM		1 mg/kg	> 10 mg/kg	
CNCCN1C2=C(C(=O)Nc3c(F)cccc3F)C(=O)CCN2c2cc3ccccc3cc21.Cl [Example 9, 5-[2-(methylamino)ethyl)-3-oxo-1,2,3,5-tetrahydronaphtho[2',3': 4,5]imidazo[1,2-a]pyridine-4-carboxylic acid (2,6-difluorophenyl)amide hydrochloride]	75 nM	> 10 mg/kg	> 1 mg/kg		
O=C1CCN2C(=C1C(=O)Nc1ccccc1F)Nc1ccc3ccccc3c12 [Example 11, 3-Oxo-1,2,3,5-tetrahydronaphtho[2',1': 4,5]imidazo[1,2-a]-pyridine-4-carboxylic acid (2-fluorophenylamide)]	> 1000 nM	> 10 mg/kg	> 1 mg/kg		
COCCN1C2=C(C(=O)Nc3nccs3)C(=O)CCN2c2cc3ccccc3cc21 [Example 19]	3.37 nM		< 1 mg/kg	> 10 mg/kg	
COCCN1C2=C(C(=O)Nc3ccccc3F)C(=O)CCN2c2c1ccc1ccccc21 [Example 12, 5-(2-Methoxyethyl)-3-oxo-1,2,3,5-tetrahydronaphtho[2',1': 4,5]-imidazo[1,2-a]pyridine-4-carboxylic acid (2-fluorophenylamide)]	58 nM	> 10 mg/kg	> 1 mg/kg		
CCOCN1C2=C(C(=O)Nc3ccccc3F)C(=O)CCN2c2cc3ccccc3cc21 [Example 15]	2.18 nM		< 1 mg/kg	> 10 mg/kg	
O=C1CCN2C(=C1C(=O)Nc1c(F)cccc1F)Nc1c2ccc2ccccc12 [Example 20]	2.73 nM	> 10 mg/kg	< 1 mg/kg		
O=C1CCN2C(=C1C(=O)Nc1ccccc1F)Nc1c2ccc2ccccc12 [Example 13, 3-Oxo-1,2,3,5-tetrahydronaphtho[1',2': 4,5]imidazo[1,2-a]pyridine-4-carboxylic acid (2-fluorophenylamide)]	154 nM	> 10 mg/kg	> 1 mg/kg		
